In brackets after ≈: the same amount, converted by molar mass.
Experiments:
Assay type in all cases: functional
[1] = test system: Mycobacterium kansasii; experiment: Antimycobacterial activity against Mycobacterium kansasii My 235/80 after 14 days by micromethod; settings: My 235/80, 336 h
[2] = test system: Mycobacterium avium; experiment: Antimycobacterial activity against Mycobacterium avium My 330/88 after 21 days by micromethod; settings: My 330/88, 504 h
[3] = test system: Mycobacterium avium; experiment: Antimycobacterial activity against Mycobacterium avium My 330/88 after 14 days by micromethod; settings: My 330/88, 336 h
[4] = test system: Mycobacterium kansasii; experiment: Antimycobacterial activity against Mycobacterium kansasii 6509/96 after 7 days by micromethod; settings: 6509/96, 168 h
[5] = test system: Mycobacterium tuberculosis; experiment: Antimycobacterial activity against Mycobacterium tuberculosis My 331/88 after 21 days by micromethod; settings: My 331/88, 504 h
[6] = test system: Mycobacterium kansasii; experiment: Antimycobacterial activity against Mycobacterium kansasii 6509/96 after 14 days by micromethod; settings: 6509/96, 336 h
[7] = test system: Mycobacterium kansasii; experiment: Antimycobacterial activity against Mycobacterium kansasii 6509/96 after 21 days by micromethod; settings: 6509/96, 504 h
[8] = test system: Mycobacterium kansasii; experiment: Antimycobacterial activity against Mycobacterium kansasii My 235/80 after 21 days by micromethod; settings: My 235/80, 504 h
[9] = test system: Mycobacterium tuberculosis; experiment: Antimycobacterial activity against Mycobacterium tuberculosis My 331/88 after 14 days by micromethod; settings: My 331/88, 336 h
[10] = test system: Mycobacterium kansasii; experiment: Antimycobacterial activity against Mycobacterium kansasii My 235/80 after 7 days by micromethod; settings: My 235/80, 168 h

## NNC(=O)c1ccncc1 [ISONIAZID]
[1]
  MIC: 250 µM (≈ 34.3 µg/mL)
[2]
  MIC: 250 µM (≈ 34.3 µg/mL)
[3]
  MIC: 250 µM (≈ 34.3 µg/mL)
[4]
  MIC: 4 µM (≈ 0.549 µg/mL)
[5]
  MIC: 1 µM (≈ 0.137 µg/mL)
[6]
  MIC: 4 µM (≈ 0.549 µg/mL)
[7]
  MIC: 4 µM (≈ 0.549 µg/mL)
[8]
  MIC: 250 µM (≈ 34.3 µg/mL)
[9]
  MIC: 0.5 µM (≈ 0.0686 µg/mL)
[10]
  MIC: 250 µM (≈ 34.3 µg/mL)

## COc1ccc(C[Se]c2nnnn2Cc2cc([N+](=O)[O-])cc([N+](=O)[O-])c2)cc1
[1]
  MIC: 32 µM (≈ 14.4 µg/mL)
[2]
  MIC: 125 µM (≈ 56.2 µg/mL)
[3]
  MIC: 125 µM (≈ 56.2 µg/mL)
[4]
  MIC: 16 µM (≈ 7.19 µg/mL)
[5]
  MIC: 16 µM (≈ 7.19 µg/mL)
[6]
  MIC: 32 µM (≈ 14.4 µg/mL)
[7]
  MIC: 62 µM (≈ 27.9 µg/mL)
[8]
  MIC: 62 µM (≈ 27.9 µg/mL)
[9]
  MIC: 16 µM (≈ 7.19 µg/mL)
[10]
  MIC: 16 µM (≈ 7.19 µg/mL)

## COc1ccc(C[Se]c2nnn(Cc3cc([N+](=O)[O-])cc([N+](=O)[O-])c3)n2)cc1
[1]
  MIC: 16 µM (≈ 7.19 µg/mL)
[2]
  MIC: 32 µM (≈ 14.4 µg/mL)
[3]
  MIC: 16 µM (≈ 7.19 µg/mL)
[4]
  MIC: 16 µM (≈ 7.19 µg/mL)
[5]
  MIC: 8 µM (≈ 3.59 µg/mL)
[6]
  MIC: 32 µM (≈ 14.4 µg/mL)
[7]
  MIC: 32 µM (≈ 14.4 µg/mL)
[8]
  MIC: 16 µM (≈ 7.19 µg/mL)
[9]
  MIC: 4 µM (≈ 1.8 µg/mL)
[10]
  MIC: 8 µM (≈ 3.59 µg/mL)

## Cn1nnc([Se]Cc2ccc([N+](=O)[O-])cc2[N+](=O)[O-])n1
[1]
  MIC: 125 µM (≈ 42.9 µg/mL)
[2]
  MIC: 62 µM (≈ 21.3 µg/mL)
[3]
  MIC: 62 µM (≈ 21.3 µg/mL)
[4]
  MIC: 16 µM (≈ 5.49 µg/mL)
[5]
  MIC: 16 µM (≈ 5.49 µg/mL)
[6]
  MIC: 62 µM (≈ 21.3 µg/mL)
[7]
  MIC: 125 µM (≈ 42.9 µg/mL)
[8]
  MIC: 125 µM (≈ 42.9 µg/mL)
[9]
  MIC: 16 µM (≈ 5.49 µg/mL)
[10]
  MIC: 32 µM (≈ 11 µg/mL)

## O=[N+]([O-])c1ccc(C[Se]c2nnn(Cc3ccc([N+](=O)[O-])cc3)n2)cc1
[1]
  MIC: 125 µM (≈ 52.4 µg/mL)
[2]
  MIC: 250 µM (≈ 105 µg/mL)
[3]
  MIC: 250 µM (≈ 105 µg/mL)
[4]
  MIC: 62 µM (≈ 26 µg/mL)
[5]
  MIC: 62 µM (≈ 26 µg/mL)
[6]
  MIC: 125 µM (≈ 52.4 µg/mL)
[7]
  MIC: 125 µM (≈ 52.4 µg/mL)
[8]
  MIC: 125 µM (≈ 52.4 µg/mL)
[9]
  MIC: 62 µM (≈ 26 µg/mL)
[10]
  MIC: 32 µM (≈ 13.4 µg/mL)

## O=[N+]([O-])c1ccc(CSc2nnnn2Cc2ccc([N+](=O)[O-])cc2)cc1
[1]
  MIC: 250 µM (≈ 93.1 µg/mL)
[2]
  MIC: 250 µM (≈ 93.1 µg/mL)
[3]
  MIC: 250 µM (≈ 93.1 µg/mL)
[4]
  MIC: 250 µM (≈ 93.1 µg/mL)
[5]
  MIC: 500 µM (≈ 186 µg/mL)
[6]
  MIC: 250 µM (≈ 93.1 µg/mL)
[7]
  MIC: 250 µM (≈ 93.1 µg/mL)
[8]
  MIC: 250 µM (≈ 93.1 µg/mL)
[9]
  MIC: 500 µM (≈ 186 µg/mL)
[10]
  MIC: 250 µM (≈ 93.1 µg/mL)

## COc1ccc(C[Se]c2nnnn2Cc2ccc([N+](=O)[O-])cc2[N+](=O)[O-])cc1
[1]
  MIC: 32 µM (≈ 14.4 µg/mL)
[2]
  MIC: 125 µM (≈ 56.2 µg/mL)
[3]
  MIC: 125 µM (≈ 56.2 µg/mL)
[4]
  MIC: 4 µM (≈ 1.8 µg/mL)
[5]
  MIC: 8 µM (≈ 3.59 µg/mL)
[6]
  MIC: 16 µM (≈ 7.19 µg/mL)
[7]
  MIC: 32 µM (≈ 14.4 µg/mL)
[8]
  MIC: 62 µM (≈ 27.9 µg/mL)
[9]
  MIC: 4 µM (≈ 1.8 µg/mL)
[10]
  MIC: 16 µM (≈ 7.19 µg/mL)

## O=[N+]([O-])c1ccc(Cn2nnc([Se]Cc3ccccc3)n2)c([N+](=O)[O-])c1
[1]
  MIC: 16 µM (≈ 6.71 µg/mL)
[2]
  MIC: 8 µM (≈ 3.35 µg/mL)
[3]
  MIC: 4 µM (≈ 1.68 µg/mL)
[4]
  MIC: 8 µM (≈ 3.35 µg/mL)
[5]
  MIC: 1 µM (≈ 0.419 µg/mL)
[6]
  MIC: 16 µM (≈ 6.71 µg/mL)
[7]
  MIC: 32 µM (≈ 13.4 µg/mL)
[8]
  MIC: 16 µM (≈ 6.71 µg/mL)
[9]
  MIC: 1 µM (≈ 0.419 µg/mL)
[10]
  MIC: 8 µM (≈ 3.35 µg/mL)

## Cn1nnc(SCc2cc([N+](=O)[O-])cc([N+](=O)[O-])c2)n1
[1]
  MIC: 8 µM (≈ 2.37 µg/mL)
[2]
  MIC: 250 µM (≈ 74.1 µg/mL)
[3]
  MIC: 125 µM (≈ 37 µg/mL)
[4]
  MIC: 8 µM (≈ 2.37 µg/mL)
[5]
  MIC: 4 µM (≈ 1.19 µg/mL)
[6]
  MIC: 16 µM (≈ 4.74 µg/mL)
[7]
  MIC: 16 µM (≈ 4.74 µg/mL)
[8]
  MIC: 8 µM (≈ 2.37 µg/mL)
[9]
  MIC: 2 µM (≈ 0.593 µg/mL)
[10]
  MIC: 4 µM (≈ 1.19 µg/mL)

## Cn1nnnc1SCc1ccc([N+](=O)[O-])cc1[N+](=O)[O-]
[1]
  MIC: 500 µM (≈ 148 µg/mL)
[2]
  MIC: 500 µM (≈ 148 µg/mL)
[3]
  MIC: 125 µM (≈ 37 µg/mL)
[4]
  MIC: 125 µM (≈ 37 µg/mL)
[5]
  MIC: 16 µM (≈ 4.74 µg/mL)
[6]
  MIC: 500 µM (≈ 148 µg/mL)
[7]
  MIC: 500 µM (≈ 148 µg/mL)
[8]
  MIC: 500 µM (≈ 148 µg/mL)
[9]
  MIC: 16 µM (≈ 4.74 µg/mL)
[10]
  MIC: 125 µM (≈ 37 µg/mL)

## Cn1nnc(SCc2ccc([N+](=O)[O-])cc2[N+](=O)[O-])n1
[1]
  MIC: 125 µM (≈ 37 µg/mL)
[2]
  MIC: 125 µM (≈ 37 µg/mL)
[3]
  MIC: 125 µM (≈ 37 µg/mL)
[4]
  MIC: 32 µM (≈ 9.48 µg/mL)
[5]
  MIC: 8 µM (≈ 2.37 µg/mL)
[6]
  MIC: 125 µM (≈ 37 µg/mL)
[7]
  MIC: 125 µM (≈ 37 µg/mL)
[8]
  MIC: 125 µM (≈ 37 µg/mL)
[9]
  MIC: 4 µM (≈ 1.19 µg/mL)
[10]
  MIC: 32 µM (≈ 9.48 µg/mL)

## Cn1nnnc1[Se]Cc1ccc([N+](=O)[O-])cc1[N+](=O)[O-]
[1]
  MIC: 125 µM (≈ 42.9 µg/mL)
[2]
  MIC: 250 µM (≈ 85.8 µg/mL)
[3]
  MIC: 250 µM (≈ 85.8 µg/mL)
[4]
  MIC: 62 µM (≈ 21.3 µg/mL)
[5]
  MIC: 32 µM (≈ 11 µg/mL)
[6]
  MIC: 125 µM (≈ 42.9 µg/mL)
[7]
  MIC: 250 µM (≈ 85.8 µg/mL)
[8]
  MIC: 125 µM (≈ 42.9 µg/mL)
[9]
  MIC: 32 µM (≈ 11 µg/mL)
[10]
  MIC: 62 µM (≈ 21.3 µg/mL)

Reference: ChEMBL document CHEMBL3621085, “Tetrazole regioisomers in the development of nitro group-containing antitubercular agents” (Medchemcomm, 2015)
